pIC50, pKi: −log10 of the molar value.
Assays:
Protease = Protease (Human immunodeficiency virus 1, UniProt Q9YQ12); test: Inhibition of HIV1 protease
[1] = tested on: Human immunodeficiency virus 1; test: Antiviral activity against HIV1 LAI infected in human MT2 cells by MTT assay; format: functional, organism-based; settings: Human immunodeficiency virus 1, M:B_Lai
[2] = tested on: Human immunodeficiency virus 1; test: Antiviral activity against multidrug-resistant HIV1 isolate JSL infected in PHA-stimulated human PBMC assessed as inhibition of p24 […] protein production; format: functional, organism-based; settings: Human immunodeficiency virus 1, isolate JSL
[3] = tested on: Human immunodeficiency virus 1; test: Antiviral activity against multidrug-resistant HIV1 isolate MM infected in PHA-stimulated human PBMC assessed as inhibition of p24 […] protein production; format: functional, organism-based; settings: Human immunodeficiency virus 1, isolate MM
[4] = tested on: Human immunodeficiency virus 1; test: Antiviral activity against multidrug-resistant HIV1 isolate G infected in PHA-stimulated human PBMC assessed as inhibition of p24 […] protein production; format: functional, organism-based; settings: Human immunodeficiency virus 1, isolate G
[5] = tested on: Human immunodeficiency virus 1; test: Antiviral activity against wild type HIV1 isolate ERS104pre infected in PHA-stimulated human PBMC assessed as inhibition of p24 […] protein production; format: functional, organism-based; settings: Human immunodeficiency virus 1, isolate ERS104pre
[6] = tested on: Human immunodeficiency virus 1; test: Antiviral activity against multidrug-resistant HIV1 isolate TM infected in PHA-stimulated human PBMC assessed as inhibition of p24 […] protein production; format: functional, organism-based; settings: Human immunodeficiency virus 1, isolate TM
[7] = tested on: Human immunodeficiency virus 1; test: Antiviral activity against multidrug-resistant HIV1 isolate B infected in PHA-stimulated human PBMC assessed as inhibition of p24 […] protein production; format: functional, organism-based; settings: Human immunodeficiency virus 1, isolate B
[8] = tested on: Human immunodeficiency virus 1; test: Antiviral activity against multidrug-resistant HIV1 isolate C infected in PHA-stimulated human PBMC assessed as inhibition of p24 […] protein production; format: functional, organism-based; settings: Human immunodeficiency virus 1, isolate C
[9] = tested on: Human immunodeficiency virus 1; test: Selectivity ratio of IC50 for multidrug-resistant HIV1 isolate TM to IC50 for wild type HIV1 isolate ERS104pre; format: functional
[10] = tested on: Human immunodeficiency virus 1; test: Selectivity ratio of IC50 for multidrug-resistant HIV1 isolate MM to IC50 for wild type HIV1 isolate ERS104pre; format: functional
[11] = tested on: Human immunodeficiency virus 1; test: Selectivity ratio of IC50 for multidrug-resistant HIV1 isolate B to IC50 for wild type HIV1 isolate ERS104pre; format: functional
[12] = tested on: Human immunodeficiency virus 1; test: Selectivity ratio of IC50 for multidrug-resistant HIV1 isolate G to IC50 for wild type HIV1 isolate ERS104pre; format: functional
[13] = tested on: Human immunodeficiency virus 1; test: Selectivity ratio of IC50 for multidrug-resistant HIV1 isolate C to IC50 for wild type HIV1 isolate ERS104pre; format: functional
[14] = tested on: Human immunodeficiency virus 1; test: Selectivity ratio of IC50 for multidrug-resistant HIV1 isolate JSL to IC50 for wild type HIV1 isolate ERS104pre; format: functional
[15] = tested on: Human immunodeficiency virus 1; test: Antiviral activity against indinavir-resistant HIV1 NL4-3; format: functional, organism-based; settings: Human immunodeficiency virus 1, NL4-3
[16] = tested on: Human immunodeficiency virus 1; test: Antiviral activity against lopinavir-resistant HIV1 NL4-3; format: functional, organism-based; settings: Human immunodeficiency virus 1, NL4-3
[17] = tested on: Human immunodeficiency virus 1; test: Antiviral activity against saquinavir-resistant HIV1 NL4-3; format: functional, organism-based; settings: Human immunodeficiency virus 1, NL4-3

Chain of Protease (Q9YQ12 whole entry): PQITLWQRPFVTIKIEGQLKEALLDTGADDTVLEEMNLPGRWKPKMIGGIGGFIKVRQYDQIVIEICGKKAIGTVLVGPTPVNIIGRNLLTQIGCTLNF

COc1ccc2c(c1)OCC/C=C\CN(C[C@@H](O)[C@H](Cc1ccccc1)NC(=O)O[C@H]1CO[C@H]3OCC[C@H]31)S2(=O)=O
pKi (Protease): 10.29 | pIC50 [1]: 7.82

COc1ccc2c(c1)OCCCC/C=C\CN(C[C@@H](O)[C@H](Cc1ccccc1)NC(=O)O[C@H]1CO[C@H]3OCC[C@H]31)S2(=O)=O
pKi (Protease): 10.10 | pIC50 [1]: 7.64

C=CCCCCN(C[C@@H](O)[C@H](Cc1ccccc1)NC(=O)O[C@H]1CO[C@H]2OCC[C@H]21)S(=O)(=O)c1ccc(OC)cc1OCC=C
pKi (Protease): 8.00

COc1ccc2c(c1)OCCCCCCCN(C[C@@H](O)[C@H](Cc1ccccc1)NC(=O)O[C@H]1CO[C@H]3OCC[C@H]31)S2(=O)=O
pKi (Protease): 10.77 | pIC50 [1]: 7.85

CC(C)CN(C[C@@H](O)[C@H](Cc1ccccc1)NC(=O)O[C@H]1CCOC1)S(=O)(=O)c1ccc(N)cc1
pIC50 [2]: 6.21 | pIC50 [3]: 6.68 | pIC50 [4]: 6.37 | pIC50 [5]: 7.52 | pIC50 [6]: 6.49 | pIC50 [7]: < 6.00 | pIC50 [8]: 6.43

C=CCCCCN(C[C@@H](O)[C@H](Cc1ccccc1)NC(=O)O[C@H]1CO[C@H]2OCC[C@H]21)S(=O)(=O)c1ccc(OC)cc1OCCCC=C
pKi (Protease): 7.94 | pIC50 [1]: < 6.00

COc1ccc2c(c1)OCCCCCN(C[C@@H](O)[C@H](Cc1ccccc1)NC(=O)O[C@H]1CO[C@H]3OCC[C@H]31)S2(=O)=O
pKi (Protease): 10.05 | pIC50 [1]: 8.26

COc1ccc2c(c1)OC/C=C\CCCCN(C[C@@H](O)[C@H](Cc1ccccc1)NC(=O)O[C@H]1CO[C@H]3OCC[C@H]31)S2(=O)=O
pKi (Protease): 10.24 | pIC50 [1]: 7.85

COc1ccc(S(=O)(=O)N(CC(C)C)C[C@@H](O)[C@H](Cc2ccccc2)NC(=O)O[C@H]2CO[C@H]3OCC[C@H]32)cc1
pIC50 [1]: 8.92

CC(C)(C)NC(=O)[C@@H]1C[C@@H]2CCCC[C@@H]2CN1C[C@@H](O)[C@H](Cc1ccccc1)NC(=O)[C@H](CC(N)=O)NC(=O)c1ccc2ccccc2n1
pIC50 [2]: 6.52 | pIC50 [3]: 6.72 | pIC50 [4]: 7.52 | pIC50 [5]: 8.10 | pIC50 [6]: 6.59 | pIC50 [7]: 6.57 | pIC50 [8]: 7.49

COc1ccc2c(c1)OCCCCCCC[C@H](C)CN(C[C@@H](O)[C@H](Cc1ccccc1)NC(=O)O[C@H]1CO[C@H]3OCC[C@H]31)S2(=O)=O
pKi (Protease): 10.15 | pIC50 [1]: 6.77

C=CCCCOc1cc(OC)ccc1S(=O)(=O)N(CC=C)C[C@@H](O)[C@H](Cc1ccccc1)NC(=O)O[C@H]1CO[C@H]2OCC[C@H]21
pKi (Protease): 8.99 | pIC50 [1]: 6.54

COc1ccc2c(c1)OCCCCCCCCCCN(C[C@@H](O)[C@H](Cc1ccccc1)NC(=O)O[C@H]1CO[C@H]3OCC[C@H]31)S2(=O)=O
pKi (Protease): 9.09 | pIC50 [1]: 6.50

C=CCCCCOc1cc(OC)ccc1S(=O)(=O)N(CC=C)C[C@@H](O)[C@H](Cc1ccccc1)NC(=O)O[C@H]1CO[C@H]2OCC[C@H]21
pKi (Protease): 8.77 | pIC50 [1]: 6.57

CC(C)(C)NC(=O)[C@@H]1CN(Cc2cccnc2)CCN1C[C@@H](O)C[C@@H](Cc1ccccc1)C(=O)N[C@H]1c2ccccc2C[C@H]1O.O
Ratio IC50 [9]: >23 | Ratio IC50 [10]: >23 | Ratio IC50 [11]: >23 | Ratio IC50 [12]: 5 | pIC50 [2]: < 6.00 | pIC50 [3]: < 6.00 | pIC50 [4]: 6.47 | pIC50 [5]: 7.37 | pIC50 [6]: < 6.00 | pIC50 [7]: < 6.00 | Ratio IC50 [13]: >23 | pIC50 [8]: < 6.00 | Ratio IC50 [14]: >23

C=CCCCCOc1cc(OC)ccc1S(=O)(=O)N(C[C@@H](O)[C@H](Cc1ccccc1)NC(=O)O[C@H]1CO[C@H]2OCC[C@H]21)CC(C)(C)CC=C
pKi (Protease): 7.09 | pIC50 [1]: < 6.00

COc1ccc2c(c1)OC/C=C\CN(C[C@@H](O)[C@H](Cc1ccccc1)NC(=O)O[C@H]1CO[C@H]3OCC[C@H]31)S2(=O)=O
pKi (Protease): 8.62

C=CCCCCN(C[C@@H](O)[C@H](Cc1ccccc1)NC(=O)O[C@H]1CO[C@H]2OCC[C@H]21)S(=O)(=O)c1ccc(OC)cc1OCCC=C
pKi (Protease): 8.16

C=CCCCCOc1cc(OC)ccc1S(=O)(=O)N(C[C@@H](C)CC=C)C[C@@H](O)[C@H](Cc1ccccc1)NC(=O)O[C@H]1CO[C@H]2OCC[C@H]21
pKi (Protease): 7.24 | pIC50 [1]: < 6.00

C=CCOc1cc(OC)ccc1S(=O)(=O)N(CC=C)C[C@@H](O)[C@H](Cc1ccccc1)NC(=O)O[C@H]1CO[C@H]2OCC[C@H]21
pKi (Protease): 10.00

COc1ccc2c(c1)OCCC/C=C/CC[C@@H](C)CN(C[C@@H](O)[C@H](Cc1ccccc1)NC(=O)O[C@H]1CO[C@H]3OCC[C@H]31)S2(=O)=O
pKi (Protease): 8.55 | pIC50 [1]: 8.20

COc1ccc2c(c1)OCCCCCCCC(C)(C)CN(C[C@@H](O)[C@H](Cc1ccccc1)NC(=O)O[C@H]1CO[C@H]3OCC[C@H]31)S2(=O)=O
pKi (Protease): 8.17 | pIC50 [1]: < 6.00

C=CCCCCOc1cc(OC)ccc1S(=O)(=O)N(CC(C)CC=C)C[C@@H](O)[C@H](Cc1ccccc1)NC(=O)O[C@H]1CO[C@H]2OCC[C@H]21 (some centres undefined)
pKi (Protease): 7.82 | pIC50 [1]: 6.42

COc1ccc2c(c1)OCCC/C=C\CN(C[C@@H](O)[C@H](Cc1ccccc1)NC(=O)O[C@H]1CO[C@H]3OCC[C@H]31)S2(=O)=O
pKi (Protease): 10.11 | pIC50 [1]: 7.70

COc1ccc2c(c1)OCCC/C=C\CC[C@@H](C)CN(C[C@@H](O)[C@H](Cc1ccccc1)NC(=O)O[C@H]1CO[C@H]3OCC[C@H]31)S2(=O)=O
pKi (Protease): 8.22 | pIC50 [1]: 6.70

COc1ccc2c(c1)OCCCCCCCCN(C[C@@H](O)[C@H](Cc1ccccc1)NC(=O)O[C@H]1CO[C@H]3OCC[C@H]31)S2(=O)=O
pKi (Protease): 9.33 | pIC50 [1]: 7.66

COc1ccc2c(c1)OCCC=CCCCCN(C[C@@H](O)[C@H](Cc1ccccc1)NC(=O)O[C@H]1CO[C@H]3OCC[C@H]31)S2(=O)=O
pIC50 [15]: 7.70 | pIC50 [16]: 7.70 | pIC50 [17]: 7.70

COc1ccc2c(c1)OCCCCCCCCCN(C[C@@H](O)[C@H](Cc1ccccc1)NC(=O)O[C@H]1CO[C@H]3OCC[C@H]31)S2(=O)=O
pKi (Protease): 9.17 | pIC50 [1]: 7.31

COc1ccc2c(c1)OCCC/C=C\CC[C@H](C)CN(C[C@@H](O)[C@H](Cc1ccccc1)NC(=O)O[C@H]1CO[C@H]3OCC[C@H]31)S2(=O)=O
pKi (Protease): 9.51 | pIC50 [1]: 8.05

COc1ccc2c(c1)OCCC/C=C/CC[C@H](C)CN(C[C@@H](O)[C@H](Cc1ccccc1)NC(=O)O[C@H]1CO[C@H]3OCC[C@H]31)S2(=O)=O
pKi (Protease): 9.82 | pIC50 [1]: 7.28

COc1ccc2c(c1)OCCCCCCC[C@@H](C)CN(C[C@@H](O)[C@H](Cc1ccccc1)NC(=O)O[C@H]1CO[C@H]3OCC[C@H]31)S2(=O)=O
pKi (Protease): 8.43 | pIC50 [1]: 6.19

C=CCCOc1cc(OC)ccc1S(=O)(=O)N(CC=C)C[C@@H](O)[C@H](Cc1ccccc1)NC(=O)O[C@H]1CO[C@H]2OCC[C@H]21
pKi (Protease): 9.20

COc1ccc2c(c1)OCCC/C=C/CCC(C)(C)CN(C[C@@H](O)[C@H](Cc1ccccc1)NC(=O)O[C@H]1CO[C@H]3OCC[C@H]31)S2(=O)=O
pKi (Protease): 8.16 | pIC50 [1]: < 6.00

Cc1cccc(C)c1OCC(=O)N[C@@H](Cc1ccccc1)[C@@H](O)C[C@H](Cc1ccccc1)NC(=O)[C@H](C(C)C)N1CCCNC1=O [LOPINAVIR]
Ratio IC50 [9]: >29 | Ratio IC50 [10]: >29 | Ratio IC50 [11]: >29 | Ratio IC50 [12]: 8 | pIC50 [2]: < 6.00 | pIC50 [3]: < 6.00 | pIC50 [4]: 6.59 | pIC50 [5]: 7.47 | pIC50 [6]: < 6.00 | pIC50 [7]: < 6.00 | Ratio IC50 [13]: >29 | pIC50 [8]: < 6.00 | Ratio IC50 [14]: >29

COc1ccc2c(c1)OCCCCCCN(C[C@@H](O)[C@H](Cc1ccccc1)NC(=O)O[C@H]1CO[C@H]3OCC[C@H]31)S2(=O)=O
pKi (Protease): 9.82 | pIC50 [1]: 7.02

C=CCCCCOc1cc(OC)ccc1S(=O)(=O)N(CCCCC=C)C[C@@H](O)[C@H](Cc1ccccc1)NC(=O)O[C@H]1CO[C@H]2OCC[C@H]21
pKi (Protease): 7.78 | pIC50 [1]: < 6.00

From ChEMBL document CHEMBL1156053, “Design, synthesis, protein-ligand X-ray structure, and biological evaluation of a series of novel macrocyclic human immunodeficiency virus-1 protease inhibitors to combat drug resistance” (J Med Chem, 2009)
